Experimental data published in patent US9630977B2, “Cephalosporin derivatives and pharmaceutical compositions thereof” (Legochem Biosciences, Inc., priority 2011, dated 2017).
Values after ≈ are worked out from the molar mass of the structure shown.

What was measured:
Assay in all cases: In vitro antibacterial activity test (broth microdilution)
Format in all cases: cell-based
A. baumannii 46 = conditions: Acinetobacter baumannii; A. baumannii 46; read-out: MIC90
Description: (§1) To evaluate antibacterial activity of each of the compounds of Examples 1 to 68, in vitro antibacterial activity test was performed.
(§2) The in vitro antibacterial activity was evaluated by measuring MIC90 (ug/mL) of each of the compounds of Examples 1 to 68, which is defined as the lowest concentration of an antibiotic that will inhibit the visible growth of 90% of microorganisms after incubation as compared with a control group to which the antibiotic is not treated. MIC90 values were measured by the broth microdilution method developed by the Clinical and Laboratory Standards Institute (CLSI) (see CLSI M7-A5, Methods for Dilution Antimicrobial Susceptibility Test for Bacteria that Grow Aerobically-Fifth Edition (2000): CLSI, Villanova, Pa.).
(§3) In vitro antibacterial activity was measured with respect to the following 19 clinical isolates: M. catarrhalis; P. aeruginosa (5 strains); K. pneumoniae (6 strains); A. baumannii (3 strains); E. coli (2 strains); A. calcoaceticus; and E. cloacae.
(§4) Test compounds each (the cephalosporin derivative compounds prepared in Examples 1 to 68) were dissolved in DMSO at the concentration of 10,240 ug/mL, were diluted by two fold with DMSO, and then were diluted by twenty fold with sterilized distilled water. The final concentration in the antibacterial activity test was in the range of […] to 128 ug/mL, and the final concentration of DMSO used as an adjuvant was 2.5% (V/V).

A. baumannii 49 = conditions: Acinetobacter baumannii; A. baumannii 49; read-out: MIC90
Description: as §1, §2, §3, §4

A. baumannii 52 = conditions: Acinetobacter baumannii; A. baumannii 52; read-out: MIC90
Description: as §1, §2, §3, §4

[1] = system: A. calcoaceticus ATCC15473; conditions: Acinetobacter calcoaceticus; A. calcoaceticus ATCC15473; read-out: MIC90
Description: as §1, §2, §3, §4

E. cloacae β19 = conditions: Enterobacter cloacae, read-out: MIC90
Description: as §1, §2, §3, §4

E. coli AG100 = conditions: Escherichia coli, AG100, E. coli AG100; read-out: MIC90
Description: as §1, §2, §3, §4

E. coli β4 = conditions: Escherichia coli, read-out: MIC90
Description: as §1, §2, §3, §4

K. pneumoniae 2011E = conditions: Klebsiella pneumoniae, 2011E, K. pneumoniae 2011E; read-out: MIC90
Description: as §1, §2, §3, §4

K. pneumoniae β14 = conditions: Klebsiella pneumoniae, read-out: MIC90
Description: as §1, §2, §3, §4

M. catarrhalis 2524 = conditions: Moraxella catarrhalis; M. catarrhalis 2524; read-out: MIC90
Description: as §1, §2, §3, §4

P. aeruginosa 1912E = conditions: Pseudomonas aeruginosa, 1912E, read-out: MIC90
Description: as §1, §2, §3, §4

P. aeruginosa 37 = conditions: Pseudomonas aeruginosa, 37, P. aeruginosa 37; read-out: MIC90
Description: as §1, §2, §3, §4

P. aeruginosa 40 = conditions: Pseudomonas aeruginosa, 40, P. aeruginosa 40; read-out: MIC90
Description: as §1, §2, §3, §4

P. aeruginosa 43 = conditions: Pseudomonas aeruginosa; P. aeruginosa 43; read-out: MIC90
Description: as §1, §2, §3, §4

P. aeruginosa 6065Y = conditions: Pseudomonas aeruginosa, read-out: MIC90
Description: as §1, §2, §3, §4

| Structure (SMILES) | MIC90 (A. baumannii 46) | MIC90 (A. baumannii 49) | MIC90 (A. baumannii 52) | MIC90 [1] | MIC90 (E. cloacae β19) | MIC90 (E. coli AG100) | MIC90 (E. coli β4) | MIC90 (K. pneumoniae 2011E) | MIC90 (K. pneumoniae β14) | MIC90 (M. catarrhalis 2524) | MIC90 (P. aeruginosa 1912E) | MIC90 (P. aeruginosa 37) | MIC90 (P. aeruginosa 40) | MIC90 (P. aeruginosa 43) | MIC90 (P. aeruginosa 6065Y) |
| --- | --- | --- | --- | --- | --- | --- | --- | --- | --- | --- | --- | --- | --- | --- | --- |
| CC(C)(O/N=C(\C(=O)N[C@@H]1C(=O)N2C(C(=O)[O-])=C(C[n+]3cnc(N)c(NC(=O)CNC(=O)c4ccc(O)c(O)c4)c3)CSC12)c1csc(N)n1)C(=O)O (stereo partly drawn) [Compound 32] | 1 µg/mL (≈ 1.3 µM) | 32 µg/mL (≈ 41.5 µM) | 16 µg/mL (≈ 20.8 µM) | 0.5 µg/mL (≈ 0.649 µM) | 128 µg/mL (≈ 166 µM) | < 0.0625 µg/mL | 8 µg/mL (≈ 10.4 µM) | 1 µg/mL (≈ 1.3 µM) | 64 µg/mL (≈ 83 µM) | 0.25 µg/mL (≈ 0.324 µM) | 2 µg/mL (≈ 2.59 µM) | 4 µg/mL (≈ 5.19 µM) | 4 µg/mL (≈ 5.19 µM) | 0.5 µg/mL (≈ 0.649 µM) | 4 µg/mL (≈ 5.19 µM) |
| CC(C)(O/N=C(\C(=O)N[C@@H]1C(=O)N2C(C(=O)[O-])=C(C[n+]3cnc(N)c(NCCNC(=O)c4ccc(O)c(C(=O)O)c4)c3)CSC12)c1csc(N)n1)C(=O)O (stereo partly drawn) [Compound 33] | 128 µg/mL (≈ 163 µM) | > 128 µg/mL | > 128 µg/mL | 128 µg/mL (≈ 163 µM) | > 128 µg/mL | 16 µg/mL (≈ 20.4 µM) | 64 µg/mL (≈ 81.6 µM) | 16 µg/mL (≈ 20.4 µM) | 128 µg/mL (≈ 163 µM) | 2 µg/mL (≈ 2.55 µM) | 64 µg/mL (≈ 81.6 µM) | > 128 µg/mL | 128 µg/mL (≈ 163 µM) | > 128 µg/mL | 128 µg/mL (≈ 163 µM) |
| CN(CCNc1c[n+](CC2=C(C(=O)[O-])N3C(=O)[C@@H](NC(=O)/C(=N\OC(C)(C)C(=O)O)c4csc(N)n4)C3SC2)cnc1N)C(=O)c1ccc(O)c(O)c1 (stereo partly drawn) [Compound 27] | 16 µg/mL (≈ 20.8 µM) | > 128 µg/mL | > 128 µg/mL | 4 µg/mL (≈ 5.19 µM) | 16 µg/mL (≈ 20.8 µM) | 1 µg/mL (≈ 1.3 µM) | 2 µg/mL (≈ 2.59 µM) | 2 µg/mL (≈ 2.59 µM) | 32 µg/mL (≈ 41.5 µM) | 0.25 µg/mL (≈ 0.324 µM) | 1 µg/mL (≈ 1.3 µM) | 2 µg/mL (≈ 2.59 µM) | 2 µg/mL (≈ 2.59 µM) | 1 µg/mL (≈ 1.3 µM) | 4 µg/mL (≈ 5.19 µM) |
| C[C@H](O/N=C(\C(=O)N[C@@H]1C(=O)N2C(C(=O)[O-])=C(C[n+]3cnc(N)c(NCCNC(=O)c4ccc(O)c(O)c4)c3)CSC12)c1csc(N)n1)C(=O)O (stereo partly drawn) [Compound 34] | 2 µg/mL (≈ 2.69 µM) | 128 µg/mL (≈ 172 µM) | 128 µg/mL (≈ 172 µM) | 0.5 µg/mL (≈ 0.673 µM) | 16 µg/mL (≈ 21.5 µM) | < 0.0625 µg/mL | 1 µg/mL (≈ 1.35 µM) | 0.25 µg/mL (≈ 0.337 µM) | 128 µg/mL (≈ 172 µM) | 1 µg/mL (≈ 1.35 µM) | 32 µg/mL (≈ 43.1 µM) | 2 µg/mL (≈ 2.69 µM) | 0.5 µg/mL (≈ 0.673 µM) | 0.5 µg/mL (≈ 0.673 µM) | 1 µg/mL (≈ 1.35 µM) |

Now from value to molecule:

| MIC90 (A. baumannii 46) | MIC90 (A. baumannii 49) | MIC90 (A. baumannii 52) | MIC90 [1] | MIC90 (E. cloacae β19) | MIC90 (E. coli AG100) | MIC90 (E. coli β4) | MIC90 (K. pneumoniae 2011E) | MIC90 (K. pneumoniae β14) | MIC90 (M. catarrhalis 2524) | MIC90 (P. aeruginosa 1912E) | MIC90 (P. aeruginosa 37) | MIC90 (P. aeruginosa 40) | MIC90 (P. aeruginosa 43) | MIC90 (P. aeruginosa 6065Y) | Structure (SMILES) |
| --- | --- | --- | --- | --- | --- | --- | --- | --- | --- | --- | --- | --- | --- | --- | --- |
| 8 µg/mL (≈ 10.2 µM) | > 128 µg/mL | 16 µg/mL (≈ 20.4 µM) | 1 µg/mL (≈ 1.27 µM) | 128 µg/mL (≈ 163 µM) | > 128 µg/mL | 8 µg/mL (≈ 10.2 µM) | 8 µg/mL (≈ 10.2 µM) | 64 µg/mL (≈ 81.6 µM) | 8 µg/mL (≈ 10.2 µM) | 32 µg/mL (≈ 40.8 µM) | 8 µg/mL (≈ 10.2 µM) | 16 µg/mL (≈ 20.4 µM) | 4 µg/mL (≈ 5.1 µM) | 16 µg/mL (≈ 20.4 µM) | CC(C)(O/N=C(\C(=O)N[C@@H]1C(=O)N2C(C(=O)[O-])=C(C[n+]3cnc(N)c(NC(=O)CCNC(=O)c4ccc(O)c(O)c4)c3)CSC12)c1csc(N)n1)C(=O)O (stereo partly drawn) [Compound 28] |
| 4 µg/mL (≈ 5.15 µM) | 4 µg/mL (≈ 5.15 µM) | 2 µg/mL (≈ 2.57 µM) | 0.5 µg/mL (≈ 0.643 µM) | 0.5 µg/mL (≈ 0.643 µM) | < 0.0625 µg/mL | 1 µg/mL (≈ 1.29 µM) | 2 µg/mL (≈ 2.57 µM) | 16 µg/mL (≈ 20.6 µM) | < 0.0625 µg/mL | 2 µg/mL (≈ 2.57 µM) | 0.25 µg/mL (≈ 0.322 µM) | 1 µg/mL (≈ 1.29 µM) | 1 µg/mL (≈ 1.29 µM) | 2 µg/mL (≈ 2.57 µM) | C[C@H](O/N=C(\C(=O)N[C@@H]1C(=O)N2C(C(=O)[O-])=C(C[n+]3cnc(N)c(NCCNC(=O)c4ccc(O)c(O)c4)c3)CSC12)c1nc(N)sc1Cl)C(=O)O (stereo partly drawn) [Compound 35] |
